Reference: US20200404919A1, “USE OF HETEROARYL-TRIAZOLE AND HETEROARYL-TETRAZOLE COMPOUNDS AS PESTICIDES IN PLANT PROTECTION” (Bayer Aktiengesellschaft, priority 2018, published 2020)

Assays:
Type in all cases: in vivo
Phaedon cochleariae = Phaedon cochleariae - spray test; conditions: in Brassica rapa, foliar, 168 h, read-out: mortality in %
Experimental: Phaedon cochleariae—Spray Test
(§1) To produce a suitable preparation of active compound, 1 part by weight of active compound is mixed with the stated amount of solvents and is diluted with water, containing an emulsifier concentration of 1000 ppm, to the desired concentration. Further test concentrations are prepared by dilution with emulsifier containing water.
Chinese cabbage (Brassica pekinensis) leaf disks are sprayed with a preparation of the active ingredient of the desired concentration. Once dry, the leaf disks are infested with mustard beetle larvae (Phaedon cochleariae).
After 7 days mortality in % is determined. 100% means all beetle larvae have been killed and 0% means none of the beetle larvae have been killed.

Diabrotica balteata = Diabrotica balteata - spray test; conditions: 168 h, 160 μg/well, germinated wheat seeds, larvae, after 7 days, read-out: efficacy in %
Experimental: Diabrotica balteata—Spray Test
as §1, with “solvent,” for “solvents”, “and the concentrate” for “and”
Soaked wheat seeds (Triticum aestivum) are placed in a multiple well plate filled with agar and some water and are incubated for 1 day to germinate (5 seeds per well). The germinated wheat seeds are sprayed with a test solution containing the desired concentration of the active ingredient. Afterwards each unit is infected with 10-20 larvae of the banded cucumber beetle (Diabrotica balteata).
After 7 days efficacy in % is determined. 100% means all the seedlings have grown up like in the untreated, uninfected control; 0% means none of the seedlings have grown.

Nilaparvata lugens = Nilaparvata lugens - spray test 1; conditions: in Oryza sativa, 96 h, read-out: mortality in %, 500 g/ha, rice plants, after 4 days
Experimental: Nilaparvata lugens—Spray Test 1
as §1
Rice plants (Oryza sativa) are sprayed with a preparation of the active ingredient of the desired concentration and the plants are infested with the brown planthopper (Nilaparvata lugens).
After 4 days mortality in % is determined. 100% means all planthoppers have been killed and 0% means none of the planthoppers have been killed.

Aphis gossypii = Aphis gossypii - oral test; conditions: 120 h, read-out: mortality in %
Experimental: Solvent: 100 parts by weight acetone
To produce a suitable preparation of active compound, 1 part by weight of active compound is mixed with the stated amount of solvent, and the concentrate is diluted with water to the desired concentration.
50 μl compound solution is filled in microtiter plates and 150 μl IPL41 insect medium (33%+15% sugar) is added to obtain a total volume of 200 μl per well. Afterwards the plates are sealed with parafilm through which a mixed population of the cotton aphid (Aphis gossypii) can suck on the compound preparation.
(§2) After 5 days mortality in % is determined. 100% means all aphids have been killed and 0% means none of the aphids have been killed.

Spodoptera frugiperda = Spodoptera frugiperda - spray test; conditions: in Zea mays, 168 h, read-out: mortality in %
Experimental: Spodoptera frugiperda—Spray Test
as §1
Maize (Zea mays) leaf sections are sprayed with a preparation of the active ingredient of the desired concentration. Once dry, the leaf sections are infested with fall armyworm larvae (Spodoptera frugiperda).
After 7 days mortality in % is determined. 100% means all caterpillars have been killed and 0% means none of the caterpillars have been killed.

Myzus persicae = Myzus persicae - oral test; conditions: 120 h, read-out: mortality in %
Experimental: To produce a suitable preparation of active compound, 1 part by weight of active compound is mixed with the stated amount of solvent, and the concentrate is diluted with water to the desired concentration. 50 μl compound solution is filled in microtiter plates and 150 μl IPL41 insect medium (33%+15% sugar) is added to obtain a total volume of 200 μl per well. Afterwards the plates are sealed with parafilm through which a mixed population of the green peach aphid (Myzus persicae) can suck on the compound preparation.
as §2

Nezara viridula = Nezara viridula - spray test 1; conditions: in Hordeum vulgare, 96 h, read-out: mortality in %
Experimental: Nezara viridula—Spray Test 1
as §1, with “solvent,” for “solvents”, “and the concentrate” for “and”
Barley plants (Hordeum vulgare) infested with larvae of the southern green stink bug (Nezara viridula) are sprayed with a test solution containing the desired concentration of the active ingredient.
After 4 days mortality in % is determined. 100% means all the stink bugs have been killed; 0% means none of the stink bugs have been killed.

| SMILES | mortality at 500 g/ha (Phaedon cochleariae) | pest or weed control at 160 µg/disc, 160 µg/well (Diabrotica balteata) | mortality at 500 g/ha (Nilaparvata lugens) | mortality at 100 ppm (Aphis gossypii) | mortality at 500 g/ha (Spodoptera frugiperda) | mortality at 20 ppm (Myzus persicae) | mortality at 500 g/ha (Nezara viridula) |
| --- | --- | --- | --- | --- | --- | --- | --- |
| CC(c1ncnn1-c1ncccn1)N(CCC(F)(F)F)C(=O)c1cc(Cl)cc(C(F)(F)F)c1 (stereo not shown) [Compound I-26, 3-chloro-N-[1-(2-pyrimidin-2-yl-1,2,4-triazol-3-yl)ethyl]-5-(trifluoromethyl)-N-(3,3,3-trifluoropropyl)benzamide] | 100% | 100% | 90% | 100% | 100% | 100% | – |
| CC(c1ncnn1-c1ncccn1)N(CC1CC1)C(=O)c1cncc(C(F)(F)F)c1 (stereo not shown) [Compound I-28, N-(cyclopropylmethyl)-N-[1-(2-pyrimidin-2-yl-1,2,4-triazol-3-yl)ethyl]-5-(trifluoromethyl)pyridine-3-carboxamide] | 100% | 100% | 100% | 100% | – | 100% | 100% |
| CC(c1ncnn1-c1ncccn1)N(CC1CC1)C(=O)c1cc(C#N)cc(C(F)(F)F)c1 (stereo not shown) [Compound I-50, 3-cyano-N-(cyclopropylmethyl)-N-[1-(2-pyrimidin-2-yl-1,2,4-triazol-3-yl)ethyl]-5-(trifluoromethyl)benzamide] | 100% | 100% | – | 100% | 100% | 100% | 100% |
| CC(NC(=O)c1cccc(C#N)c1)c1ncnn1-c1ncccn1 (stereo not shown) [Compound I-52] | 100% | – | 100% | 100% | – | 90% | 100% |
| CC(c1ncnn1-c1ccc(Cl)cn1)N(CC1CC1)C(=O)c1cc(Cl)cc(C(F)(F)F)c1 (stereo not shown) [Compound I-84, 3-chloro-N-[1-[2-(5-chloro-2-pyridyl)-1,2,4-triazol-3-yl]ethyl]-N-(cyclopropylmethyl)-5-(trifluoromethyl)benzamide] | 100% | 100% | – | – | 100% | 100% | 100% |
| CC(c1ncnn1-c1cccnc1)N(CC1CC1)C(=O)c1cc(Cl)cc(C(F)(F)F)c1 (stereo not shown) [Compound I-85] | – | 100% | – | 100% | – | 100% | – |
| CC(c1ncnn1-c1cccc(Cl)n1)N(CC1CC1)C(=O)c1cc(Cl)cc(C(F)(F)F)c1 (stereo not shown) [Compound I-87] | – | 100% | – | – | – | – | – |
| CC(c1ncnn1-c1ncccn1)N(CC1CC1)C(=O)c1cncc(SC(F)(F)F)c1 (stereo not shown) [Compound I-90] | 100% | – | – | 100% | – | 100% | – |
| CC(c1ncnn1-c1ncc(Br)cn1)N(CC1CC1)C(=O)c1cc(Cl)cc(C(F)(F)F)c1 (stereo not shown) [Compound I-92, N-[1-[2-(5-bromopyrimidin-2-yl)-1,2,4-triazol-3-yl]ethyl]-3-chloro-N-(cyclopropylmethyl)-5-(trifluoromethyl)benzamide] | 100% | 100% | – | 100% | 100% | 100% | – |
| CC(c1ncnn1-c1ccncc1)N(CC1CC1)C(=O)c1cc(Cl)cc(C(F)(F)F)c1 (stereo not shown) [Compound I-94] | – | 100% | – | 100% | – | 100% | – |
| CC(c1ncnn1-c1ncccn1)N(CC1CCC1)C(=O)c1cc(Cl)cc(C(F)(F)F)c1 (stereo not shown) [Compound I-101] | – | 100% | – | 100% | 100% | 100% | – |
| CC(c1ncnn1-c1ccnc(Cl)c1)N(CC1CC1)C(=O)c1cc(Cl)cc(C(F)(F)F)c1 (stereo not shown) [Compound I-102] | – | 100% | – | – | – | – | – |
| CC(c1ncnn1-c1cccnn1)N(CC1CC1)C(=O)c1cc(Cl)cc(C(F)(F)F)c1 (stereo not shown) [Compound I-103] | 100% | 100% | – | 100% | – | 90% | – |
| CC(c1ncnn1-c1ncccn1)N(CC1CC1)C(=O)c1ccc(Cl)c(Cl)c1 (stereo not shown) [Compound I-104] | 100% | 100% | – | 90% | – | 100% | 100% |
| CC(c1ncnn1-c1ccc(Cl)nc1)N(CC1CC1)C(=O)c1cc(Cl)cc(C(F)(F)F)c1 (stereo not shown) [Compound I-105] | 100% | 100% | – | – | – | – | – |
| CC(c1ncnn1-c1ncccn1)N(CC1COC1)C(=O)c1cc(Cl)cc(C(F)(F)F)c1 (stereo not shown) [Compound I-118] | 83% | 100% | – | – | 100% | 100% | – |
| C[C@H](NC(=O)c1cc(F)cc(C#N)c1)c1ncnn1-c1ncccn1 [Compound I-128] | – | 100% | – | – | – | – | 100% |
| C[C@H](NC(=O)c1cc(Cl)cc(C(F)(F)F)c1)c1ncnn1-c1ccc(Br)cn1 [Compound I-129, N-[(1S)-1-[2-(5-bromo-2-pyridyl)-1,2,4-triazol-3-yl]ethyl]-3-chloro-5-(trifluoromethyl)benzamide] | – | 100% | – | – | 100% | – | 100% |
| CC(NC(=O)c1cc(Cl)cc(Cl)c1)c1ncnn1-c1ncc(Br)cn1 (stereo not shown) [Compound I-130] | – | 100% | – | – | 100% | – | – |
| C[C@H](NC(=O)c1cc(Cl)cc(C(F)(F)F)c1)c1nc(C(F)(F)F)nn1-c1ccc(Cl)cn1 [Compound I-131, 3-chloro-N-{(1S)-1-[1-(5-chloropyridin-2-yl)-3-(trifluoromethyl)-1H-1,2,4-triazol-5-yl]ethyl}-5-(trifluoromethyl)benzamide] | – | 80% | 100% | – | 100% | – | 100% |
| C[C@H](NC(=O)c1cc(Cl)cc(C(F)(F)F)c1)c1ncnn1-c1ccc(I)cn1 [Compound I-132, 3-chloro-N-[(1S)-1-[2-(5-iodo-2-pyridyl)-1,2,4-triazol-3-yl]ethyl]-5-(trifluoromethyl)benzamide] | – | 100% | – | – | 100% | – | 100% |
| C[C@H](NC(=O)c1cc(F)c(Cl)c(F)c1)c1ncnn1-c1ncccn1 [Compound I-133] | – | 100% | – | – | – | – | – |
| C[C@H](NC(=O)c1cncc(C(F)(F)F)c1)c1nc(C(F)(F)F)nn1-c1ccc(Cl)cn1 [Compound I-135] | – | 100% | – | – | 100% | – | – |
| C[C@H](NC(=O)c1cc(C(F)(F)F)cc(C(F)(F)F)c1)c1nc(C(F)(F)F)nn1-c1ccc(Cl)cn1 [Compound I-136, N-[(1S)-1-[2-(5-chloro-2-pyridyl)-5-(trifluoromethyl)-1,2,4-triazol-3-yl]ethyl]-3,5-bis(trifluoromethyl)benzamide] | – | 100% | – | – | 100% | – | – |
| C[C@H](NC(=O)c1cc(Cl)cc(Br)c1)c1ncnn1-c1ccc(Cl)cn1 [Compound I-137, 3-bromo-5-chloro-N-[(1S)-1-[2-(5-chloro-2-pyridyl)-1,2,4-triazol-3-yl]ethyl]benzamide] | – | 100% | – | – | 100% | – | 100% |
